Experimental data taken from patent US3963756A, “Derivatives of 6-methyl-2H-pyran-2,4(3H)-dione” (Zaidan Hojin Biseibutsu Kagaku Kenkyu Kai, priority 1972, dated 1976).

Key:
[1] = target: T1, Dopamine β-Hydroxylase (Bos taurus, UniProt P15101); assay: Inhibition of dopamine β-hydroxylase (DH); assay type: biochemical; conditions: 200 mcg/cc
T1 sequence (P15101 1-610): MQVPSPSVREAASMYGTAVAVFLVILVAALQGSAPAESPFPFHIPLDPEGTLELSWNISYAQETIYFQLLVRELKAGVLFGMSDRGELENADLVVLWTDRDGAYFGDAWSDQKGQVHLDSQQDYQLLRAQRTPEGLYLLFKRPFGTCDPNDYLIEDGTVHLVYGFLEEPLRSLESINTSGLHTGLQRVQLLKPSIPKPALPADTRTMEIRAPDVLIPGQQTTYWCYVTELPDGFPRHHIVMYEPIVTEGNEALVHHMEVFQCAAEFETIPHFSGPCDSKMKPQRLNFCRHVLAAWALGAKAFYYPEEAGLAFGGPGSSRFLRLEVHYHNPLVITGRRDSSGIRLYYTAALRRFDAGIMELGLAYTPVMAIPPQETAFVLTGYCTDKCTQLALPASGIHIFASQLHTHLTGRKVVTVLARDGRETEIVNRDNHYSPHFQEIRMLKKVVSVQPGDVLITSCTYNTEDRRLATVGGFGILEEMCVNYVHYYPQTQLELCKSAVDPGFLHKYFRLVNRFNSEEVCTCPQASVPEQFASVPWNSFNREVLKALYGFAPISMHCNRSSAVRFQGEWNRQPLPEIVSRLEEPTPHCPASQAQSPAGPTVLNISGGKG
Text: (§1) The new compounds of the present invention have been examined for their biological activities, and their inhibition to tyrosine hydroxylase and dopamine β-hydroxylase are summarized below in Table 2. The details of the test methods used and the close relationship and reliable correlation of biological activities between in vitro and in vivo test results are well documented in the literature, e.g. J. Antibiot. 23: 514 (1970); Biochem. Pharmacol., 19: 35 (1970); and J. Am. Chem. Soc. 93: 1285 (1971). […] The effects of this compound on tyrosine hydroxylase and dopamine β-hydroxylase were also tested by the methods described in the Journal of Antibiotics 23:514 (1970) and Biochem. Pharmacol. 19:35 (1970), respectively.
(§2) The chemical structure of the products [I], solvent for hydrogenation and solvent for recrystallization are summarised in Table 1, and the yields of the products [I] are also shown in Table 1 together with their melting points, elemental analysis data, Inhibition (%) of tyrosine hydroxylase (TH) and Inhibition (%) to dopamine β-hydroxylase (DH) at different concentrations of the products [I] of 100 mcg/cc and 200 mcg/cc.

[2] = target: T2, Tyrosine Hydroxylase (Bos taurus, UniProt P17289); assay: Inhibition of tyrosine hydroxylase (TH); assay type: biochemical; conditions: for inhibition at 100 µg/mL: 100 mcg/cc; for inhibition at 200 µg/mL: 200 mcg/cc
T2 sequence (P17289 1-491): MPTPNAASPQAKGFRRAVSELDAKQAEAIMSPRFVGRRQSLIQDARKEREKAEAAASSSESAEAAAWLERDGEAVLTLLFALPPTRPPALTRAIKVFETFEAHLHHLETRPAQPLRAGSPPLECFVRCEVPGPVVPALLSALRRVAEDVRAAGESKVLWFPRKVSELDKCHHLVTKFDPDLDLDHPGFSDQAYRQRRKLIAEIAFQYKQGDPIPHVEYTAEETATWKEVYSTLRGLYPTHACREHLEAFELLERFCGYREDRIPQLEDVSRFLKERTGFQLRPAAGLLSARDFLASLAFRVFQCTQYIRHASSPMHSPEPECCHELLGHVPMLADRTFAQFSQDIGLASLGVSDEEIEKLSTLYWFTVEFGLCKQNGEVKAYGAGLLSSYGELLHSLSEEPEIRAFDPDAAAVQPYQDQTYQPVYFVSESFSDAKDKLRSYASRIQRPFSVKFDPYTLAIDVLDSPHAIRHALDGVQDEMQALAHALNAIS
Text: as §1, §2

| SMILES | inhibition at 200 µg/mL [1] [%] | inhibition at 100 µg/mL [2] [%] | inhibition at 200 µg/mL [2] [%] |
| --- | --- | --- | --- |
| CC1=CC(=O)C(C(=O)CCc2ccc(Cl)cc2Cl)C(=O)O1 (stereo not drawn) [Example 28] | 100 | 29.8 | 29.1 |
| CC1=CC(=O)C(C(=O)CCc2ccc(C(C)C)cc2)C(=O)O1 (stereo not drawn) [Example 20] | 94.5 | 16.8 | 25.5 |
| CC1=CC(=O)C(C(=O)CCCCc2ccccc2)C(=O)O1 (stereo not drawn) [Example 12] | 85.8 | 33.7 | – |
| CC1=CC(=O)C(C(=O)CCc2cccs2)C(=O)O1 (stereo not drawn) [Example 38] | 30.3 | 52.3 | – |
| CCOc1ccc(CCC(=O)C2C(=O)C=C(C)OC2=O)cc1 (stereo not drawn) [Example 11] | 6 | – | 10.1 |
| CC1=CC(=O)C(C(=O)CCc2ccc(C(N)=O)cc2)C(=O)O1 (stereo not drawn) [Example 33] | 30.3 | 20.5 | – |
| CC1=CC(=O)C(C(=O)CCc2ccc(O)c(O)c2)C(=O)O1 (stereo not drawn) [Example 9] | 20.6 | 80.6 | 93.5 |
| COc1ccc(CCC(=O)C2C(=O)C=C(C)OC2=O)c(OC)c1 (stereo not drawn) [Example 27] | 44.9 | 20 | 26 |
| COc1cccc(CCC(=O)C2C(=O)C=C(C)OC2=O)c1 (stereo not drawn) [Example 25] | 83.5 | 32 | 34.9 |
| COc1cccc(CCC(=O)C2C(=O)C=C(C)OC2=O)c1O (stereo not drawn) [Example 15] | – | 20.9 | 29.9 |
| CC1=CC(=O)C(C(=O)CCc2ccc(C#N)cc2)C(=O)O1 (stereo not drawn) [Example 8] | 77.5 | 81.4 | 84.5 |
| CC1=CC(=O)C(C(=O)CCc2ccccc2Cl)C(=O)O1 (stereo not drawn) [Example 17] | 89.8 | 37.1 | 48.4 |
| COc1cccc(CCC(=O)C2C(=O)C=C(C)OC2=O)c1OC (stereo not drawn) [Example 21] | 74.7 | 39 | – |
| CC1=CC(=O)C(C(=O)CCc2ccco2)C(=O)O1 (stereo not drawn) [Example 24, 3-[3-(2-furyl)propanoyl]-6-methyl-2H-pyran-2,4(3H)-dione] | 60.3 | 44.7 | 45.5 |
| CC1=CC(=O)C(C(=O)CCc2cccc3ccccc23)C(=O)O1 (stereo not drawn) [Example 36] | 56.2 | 34.8 | – |
| CC1=CC(=O)C(C(=O)CCc2ccc(C)o2)C(=O)O1 (stereo not drawn) [Example 30] | 100 | 23.5 | – |
| CC1=CC(=O)C(C(=O)CCc2ccc(N(C)C)cc2)C(=O)O1 (stereo not drawn) [Example 16] | – | 23 | 26.1 |
| CC1=CC(=O)C(C(=O)CCc2ccc3c(c2)OCO3)C(=O)O1 (stereo not drawn) [Example 3, 3-(3,4-methylenedioxyhydrocinnamoyl)-6-methyl-2H-pyran-2,4(3H)-dione] | 86.7 | 13.7 | 18.5 |
| CC1=CC(=O)C(C(=O)CCc2cc(Cl)cc(Cl)c2O)C(=O)O1 (stereo not drawn) [Example 34] | 82.3 | 53.6 | 69.3 |
| COC(=O)c1ccc(CCC(=O)C2C(=O)C=C(C)OC2=O)cc1 (stereo not drawn) [Example 14, 3-(4-methoxycarbonylhydrocinnamoyl)-6-methyl-2H-pyran-2,4(3H)-dione] | 54.9 | 13 | 15 |
